The values that follow come from US11066369B2, “N-(pyridin-2-yl)pyridine-sulfonamide derivatives and their use in the treatment of disease” (Novartis AG, priority 2016, dated 2021).

Counter-ions that a name gives are not always drawn.

One assay deals with T1, delF508-CFTR (Homo sapiens, UniProt P13569, DEL508-508).
T1 construct: functional activity of the CFTR channel (Chloride ion transport) in patient derived primary human bronchial epithelial cells; host or cells: patient-derived primary human bronchial epithelial cells (delF508-CFTR)
T1 sequence (P13569 with tags, fused parts or gaps DEL508-508): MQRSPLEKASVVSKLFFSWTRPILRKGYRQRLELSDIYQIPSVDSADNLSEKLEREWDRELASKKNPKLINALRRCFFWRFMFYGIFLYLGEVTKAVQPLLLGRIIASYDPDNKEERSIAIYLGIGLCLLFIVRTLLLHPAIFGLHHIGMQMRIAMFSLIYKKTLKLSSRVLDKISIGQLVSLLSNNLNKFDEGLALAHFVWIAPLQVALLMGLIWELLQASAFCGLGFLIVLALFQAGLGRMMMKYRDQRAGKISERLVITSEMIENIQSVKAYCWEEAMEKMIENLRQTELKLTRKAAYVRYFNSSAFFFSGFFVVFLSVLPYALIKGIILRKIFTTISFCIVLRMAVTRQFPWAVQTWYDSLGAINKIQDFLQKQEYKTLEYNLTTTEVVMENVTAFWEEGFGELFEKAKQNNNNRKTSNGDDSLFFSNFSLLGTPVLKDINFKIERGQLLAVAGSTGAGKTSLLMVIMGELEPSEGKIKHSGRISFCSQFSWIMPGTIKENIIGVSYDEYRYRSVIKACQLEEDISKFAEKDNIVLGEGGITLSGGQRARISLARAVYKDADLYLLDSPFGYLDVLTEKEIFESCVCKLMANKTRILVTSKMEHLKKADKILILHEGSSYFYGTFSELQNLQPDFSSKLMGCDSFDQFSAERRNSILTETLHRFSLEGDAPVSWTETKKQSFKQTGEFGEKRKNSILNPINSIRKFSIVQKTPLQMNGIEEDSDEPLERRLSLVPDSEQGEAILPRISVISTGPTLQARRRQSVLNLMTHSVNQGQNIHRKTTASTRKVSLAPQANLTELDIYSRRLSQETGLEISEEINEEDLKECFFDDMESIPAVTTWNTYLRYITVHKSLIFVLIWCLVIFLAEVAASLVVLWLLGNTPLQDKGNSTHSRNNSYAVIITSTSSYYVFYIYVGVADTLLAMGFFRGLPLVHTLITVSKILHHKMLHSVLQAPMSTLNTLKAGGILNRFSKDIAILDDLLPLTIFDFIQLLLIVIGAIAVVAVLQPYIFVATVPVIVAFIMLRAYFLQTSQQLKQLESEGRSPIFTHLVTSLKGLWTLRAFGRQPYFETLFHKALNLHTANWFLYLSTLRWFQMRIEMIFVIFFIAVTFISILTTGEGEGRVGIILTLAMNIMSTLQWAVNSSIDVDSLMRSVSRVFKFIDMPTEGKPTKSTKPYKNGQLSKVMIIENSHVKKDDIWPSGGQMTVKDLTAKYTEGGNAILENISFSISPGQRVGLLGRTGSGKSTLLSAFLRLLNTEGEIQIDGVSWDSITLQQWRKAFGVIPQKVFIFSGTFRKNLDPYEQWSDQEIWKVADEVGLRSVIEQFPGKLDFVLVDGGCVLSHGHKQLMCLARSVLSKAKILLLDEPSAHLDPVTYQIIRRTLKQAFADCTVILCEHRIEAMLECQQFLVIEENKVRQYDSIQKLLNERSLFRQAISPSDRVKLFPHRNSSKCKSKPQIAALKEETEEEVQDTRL
The assay is described as follows: Measurement of delF508-CFTR functional activity in primary human bronchial epithelial cells (HBECs) using Multi-Transepithelial Clamp Circuit (MTECC-24) assay. It counts as cell-based. The following applies: primary CF HBECs; for MTECC24 CFHBEC- Amax %: test compound added 24h before assay plus potentiator, relative to reference combination (2 μM corrector + 0.5 μM potentiator); for EC50: test compound added 24h before assay, in the presence of potentiator, mean of at least two replicates, read-out: MTECC24 CFHBEC- EC50. The procedure, abridged: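 Compound tested as 10-point, 1-in-3 concentration response (0.1% or 0.2% DMSO), 24 h basolateral pre-incubation, then re-added to both sides. MTECC-24 measured Ieq in ALI-differentiated primary delF508 bronchial cells after amiloride, forskolin activation, potentiator and INH-172 block; data normalized to DMSO baseline, EC50 fitted.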

In assay [1] the target is T2, horseradish peroxidase (HRP) tagged delF508-CFTR (Homo sapiens, UniProt P13569, DEL508-508).
T2 construct: expressed in transfected cells
T2 sequence (P13569 with tags, fused parts or gaps DEL508-508): as above
In words: Measurement of delF508-CFTR-HRP surface expression in CFBE41o- cells.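 For DelF508-CFTR-HRP Amax %: percent efficacy relative to reference corrector lumacaftor.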 The format is cell-based. Conditions: delF508-CFTR-HRP surface expression, CFBE41o- cells; for Emax: read-out: DelF508-CFTR-HRP Amax %; for EC50: read-out: DelF508-CFTR-HRP EC50. The procedure, abridged:
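Surface-trafficked delF508-CFTR detected via extracellular HRP tag, read as luminescence from a membrane-impermeant substrate in CFBE41o- cells. Cells pre-induced 48h with 500 ng/mL doxycycline, then exposed 24h at 37° C to a 10-point, 3-fold dilution series from 10 μM (DMSO ≤0.5%). Triplicate dose-responses fitted logistically for EC50 after per-plate normalization; fold change versus reference compound.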

What is called EC50 is the concentration at which the effect is half-maximal. For `CC1(O)CN(c2cccc(S(=O)(=O)Nc3ccc(C(F)(F)F)c(-c4ccccc4Cl)n3)n2)C1` [Example 221, N-(6-(2-chlorophenyl)-5-(trifluoromethyl)pyridin-2-yl)-6-(3-hydroxy-3-methylazetidin-1-yl)pyridine-2-sulfonamide], on delF508-CFTR, the “MTECC24 CFHBEC- Amax %” value stood at 63.5% and the EC50 is 7 nM. Besides, in assay [1], the Emax stood at 552% and the EC50 was determined as 1320 nM.
The matching figures for `Cc1c(F)cccc1-c1nc(NS(=O)(=O)c2cccc(N3CC(C)(O)C3)n2)ccc1C(F)(F)F` [Example 215, N-(6-(3-fluoro-2-methylphenyl)-5-(trifluoromethyl)pyridin-2-yl)-6-(3-hydroxy-3-methylazetidin-1-yl)pyridine-2-sulfonamide]: 66.4%, 4.7 nM, 303% and 2100 nM.
In the case of `Cc1cccc(C)c1-c1nc(NS(=O)(=O)c2cccc(N3CC(O)C3)n2)ccc1Cl` [Example 231, N-(5-chloro-6-(2,6-dimethylphenyl)pyridin-2-yl)-6-(3-hydroxyazetidin-1-yl)pyridine-2-sulfonamide], on delF508-CFTR, the “MTECC24 CFHBEC- Amax %” value was determined as 71.8% and the EC50 was 20.6 nM. In assay [1], the Emax came to 465% and the EC50 came to 1160 nM.
As for `Cc1c(F)cccc1-c1nc(NS(=O)(=O)c2ccnc(N3CCOC[C@H]3C)c2)ccc1Cl` [Example 319, (R)—N-(5-chloro-6-(3-fluoro-2-methylphenyl)pyridin-2-yl)-2-(3-methylmorpholino)pyridine-4-sulfonamide], at delF508-CFTR, the “MTECC24 CFHBEC- Amax %” value turned out to be 67.1% and the EC50 worked out at 25 nM. For the same molecule, in assay [1], the Emax is 195% and the EC50 came to 3480 nM.
The matching figures for `CC(=O)N1CCN(c2cccc(S(=O)(=O)Nc3ccc(C(F)(F)F)c(-c4cc(F)ccc4C)n3)n2)CC1` [Example 180, 6-(4-acetylpiperazin-1-yl)-N-(6-(5-fluoro-2-methylphenyl)-5-(trifluoromethyl)pyridin-2-yl)pyridine-2-sulfonamide]: 44.5%, 9.4 nM, 627% and 1500 nM.
With `CN[C@@H]1CCN(c2cccc(S(=O)(=O)Nc3ccc(C(F)(F)F)c(-c4ccccc4C)n3)n2)C1` [Example 121, (R)-6-(3-(methylamino)pyrrolidin-1-yl)-N-(6-(o-tolyl)-5-(trifluoromethyl)pyridin-2-yl)pyridine-2-sulfonamide Hydrochloride], on delF508-CFTR, the “MTECC24 CFHBEC- Amax %” value turned out to be 79.6% and the EC50 came to 164 nM. Moreover, in assay [1], the Emax stood at 308% and the EC50 was found to be 3450 nM.
The matching figures for `Cc1ccccc1-c1nc(NS(=O)(=O)c2cccc(N3CCC(C)(C(=O)O)CC3)n2)ccc1Cl` [Example 255, 1-(6-(N-(5-chloro-6-(o-tolyl)pyridin-2-yl)sulfamoyl)pyridin-2-yl)-4-methylpiperidine-4-carboxylic Acid]: 55.1%, 10.4 nM, 222% and 3160 nM.
The matching figures for `C[C@]1(C(=O)O)CCCN(c2cccc(S(=O)(=O)Nc3ccc(C(F)(F)F)c(-c4ccccc4C4CCC4)n3)n2)C1` [Example 373, (S)-1-(6-(N-(6-(2-cyclobutylphenyl)-5-(trifluoromethyl)pyridin-2-yl)sulfamoyl)pyridin-2-yl)-3-methylpiperidine-3-carboxylic Acid]: 93.1%, 1.17 nM, 367% and 273 nM.
The matching figures for `Cc1cccc(C)c1-c1nc(NS(=O)(=O)c2cccc(N3CCC(C(=O)O)CC3)n2)ccc1Cl` [Example 247, 1-(6-(N-(5-chloro-6-(2,6-dimethylphenyl)pyridin-2-yl)sulfamoyl)pyridin-2-yl)piperidine-4-carboxylic Acid]: 57.0%, 191 nM, 493% and 3090 nM.
Consider `Cc1c(C#N)cccc1-c1nc(NS(=O)(=O)c2cccc(N)n2)ccc1Cl` [Example 67, 6-amino-N-(5-chloro-6-(3-cyano-2-methylphenyl)pyridin-2-yl)pyridine-2-sulfonamide], for which, at delF508-CFTR, the “MTECC24 CFHBEC- Amax %” value is recorded as 45.8% and the EC50 turned out to be 114 nM. For the same molecule, in assay [1], the Emax was 214% and the EC50 was 1840 nM.
For `CC1(C(=O)O)CCCN(c2cccc(S(=O)(=O)Nc3ccc(C(F)(F)F)c(-c4ccccc4C4CCC4)n3)n2)C1` (stereo not drawn) [Example 368, 1-(6-(N-(6-(2-cyclobutylphenyl)-5-(trifluoromethyl)pyridin-2-yl)sulfamoyl)pyridin-2-yl)-3-methylpiperidine-3-carboxylic Acid], at delF508-CFTR, the “MTECC24 CFHBEC- Amax %” value is 66.2% and the EC50 is 0.152 nM. Besides, the concentration for a half-maximal effect (EC50) in assay [1] was found to be 671 nM.
For the molecule `Nc1cccc(S(=O)(=O)Nc2ccc(Cl)c(-c3c(F)cccc3F)n2)n1` [Example 80, 6-amino-N-(5-chloro-6-(2,6-difluorophenyl)pyridin-2-yl)pyridine-2-sulfonamide], on delF508-CFTR, the “MTECC24 CFHBEC- Amax %” value stood at 50.7% and the EC50 was 96 nM. Further, in assay [1], the Emax was 137% and the EC50 amounted to 2280 nM.
Regarding `Cc1ccc(F)cc1-c1nc(NS(=O)(=O)c2cccc(N3CC(O)(CO)C3)n2)ccc1Cl` [Example 235, N-(5-chloro-6-(5-fluoro-2-methylphenyl)pyridin-2-yl)-6-(3-hydroxy-3-(hydroxymethyl)azetidin-1-yl)pyridine-2-sulfonamide], on delF508-CFTR, the “MTECC24 CFHBEC- Amax %” value is on record as 57.6% and the half-maximal effective concentration (EC50) worked out at 182 nM. In addition, in assay [1], the Emax amounted to 203% and the EC50 stood at 1970 nM.
The matching figures for `Cc1ccccc1-c1nc(NS(=O)(=O)c2cccc(N3CC4C(N)C4C3)n2)ccc1C(F)(F)F` (stereo not drawn) [Example 107, 6-(6-amino-3-azabicyclo[3.1.0]hexan-3-yl)-N-(6-(o-tolyl)-5-(trifluoromethyl)pyridin-2-yl)pyridine-2-sulfonamide Hydrochloride]: 72.2%, 111 nM, 756% and 1990 nM.
On to `Cc1ccccc1-c1nc(NS(=O)(=O)c2cccc(N3CCC[C@H](N)C3)n2)ccc1C(F)(F)F` [Example 103, (S)-6-(3-aminopiperidin-1-yl)-N-(6-(o-tolyl)-5-(trifluoromethyl)pyridin-2-yl)pyridine-2-sulfonamide Hydrochloride], for which, at delF508-CFTR, the “MTECC24 CFHBEC- Amax %” value worked out at 67.8% and the EC50 turned out to be 94.8 nM. In assay [1], the Emax was found to be 370% and the EC50 is 2970 nM.
On to `Cc1ccc(F)cc1-c1nc(NS(=O)(=O)c2cccc(N[C@@H]3COCC[C@H]3O)n2)ccc1Cl` [Example 278, N-[5-chloro-6-(5-fluoro-2-methylphenyl)pyridin-2-yl]-6-{[(3R,4R)-4-hydroxyoxan-3-yl]amino}pyridine-2-sulfonamide], for which, at delF508-CFTR, the “MTECC24 CFHBEC- Amax %” value is 73.4% and the EC50 stood at 5.4 nM. In assay [1], the EC50 amounted to 1100 nM.
`Nc1cccc(S(=O)(=O)Nc2ccc(C(F)(F)F)c(-c3ccccc3Cl)n2)n1` [Example 17, 6-amino-N-(6-(2-chlorophenyl)-5-(trifluoromethyl)pyridin-2-yl)pyridine-2-sulfonamide]: at delF508-CFTR, the “MTECC24 CFHBEC- Amax %” value is 69.5% and the EC50 was 5.1 nM. In addition, in assay [1], the Emax came to 510% and the EC50 was determined as 2090 nM.
The like results for `CNC1CCN(c2cccc(S(=O)(=O)Nc3ccc(C(F)(F)F)c(-c4ccccc4C)n3)n2)CC1` [Example 109, 6-(4-(methylamino)piperidin-1-yl)-N-(6-(o-tolyl)-5-(trifluoromethyl)pyridin-2-yl)pyridine-2-sulfonamide Hydrochloride] were, in that order, 84.9%, 170 nM, 332% and 2680 nM.
The like results for `COc1ccc(Cl)c(-c2nc(NS(=O)(=O)c3cccc(N4CC(O)C4)n3)ccc2Cl)c1` [Example 228, N-(5-chloro-6-(2-chloro-5-methoxyphenyl)pyridin-2-yl)-6-(3-hydroxyazetidin-1-yl)pyridine-2-sulfonamide] were, in that order, 87.0%, 38.1 nM, 405% and 2990 nM.
As for `Nc1cccc(S(=O)(=O)Nc2ccc(Cl)c(-c3ccc(F)cc3Cl)n2)n1` [Example 56, 6-amino-N-(5-chloro-6-(2-chloro-4-fluorophenyl)pyridin-2-yl)pyridine-2-sulfonamide], at delF508-CFTR, the “MTECC24 CFHBEC- Amax %” value is given as 63.9% and the EC50 came to 28.3 nM. Moreover, in assay [1], the Emax is 301% and the EC50 was determined as 2580 nM.
